Calls of active or inactive are those of the source. The calls are words filed in the database; no cut-off is given here.
Experiments:
[1] = test system: Trypanosoma cruzi; test: Antiparasitic activity against Trypanosoma cruzi Tulahuen intracellular amastigotes by beta-galactosidase reporter gene assay; format: functional, organism-based
[2] = target: T1, UDP-glucuronosyltransferases (UGTs) (family) (Homo sapiens, UniProt O60656+O75310+O75795+P06133+P0DTE4+P0DTE5+P16662+P19224+P22309+P22310+P35503+P35504+P36537+P54855+Q6UWM9+Q9BY64+Q9HAW7+Q9HAW8+Q9HAW9); test: Drug metabolism in human liver microsome S9 fraction assessed as UGT-mediated metabolism by measuring compound remaining at 5 uM pretreated with UDPGA and measured after 30 mins by UPLC-MS/MS analysis; format: ADME, microsomes; settings: liver microsome S9 fraction, read-out: Stability
[3] = test system: Trypanosoma cruzi; test: Trypanocidal activity against Trypanosoma cruzi Y strain intracellular amastigotes infected in mouse cardiac cells assessed as parasite death after 168 hrs by Giemsa-staining based assay; format: functional, organism-based
[4] = test system: UGT; test: Drug metabolism in rat liver microsome S9 fraction assessed as UGT-mediated metabolism by measuring compound remaining at 5 uM pretreated with UDPGA and measured after 15 mins by UPLC-MS/MS analysis; format: ADME, microsomes; settings: liver microsome S9 fraction, read-out: Stability
[5] = test system: CYP450; test: Drug metabolism in rat liver microsome S9 fraction assessed as CYP450-mediated metabolism by measuring compound remaining at 5 uM pretreated with NADPH and measured after 30 mins by UPLC-MS/MS analysis; format: ADME, microsomes; settings: liver microsome S9 fraction, read-out: Stability
[6] = test system: Trypanosoma cruzi; test: Trypanocidal activity against Trypanosoma cruzi Y strain bloodstream trypomastigotes isolated from infected Swiss mouse […] assessed as parasite death after 24 hrs by neubauer chamber based light microscopy; format: functional, organism-based
[7] = test system: Trypanosoma cruzi; test: (§1) Antiparasitic activity against Trypanosoma cruzi Y strain bloodstream trypomastigotes infected in Swiss Webster mouse assessed as protection against parasite-induced mortality by measuring survivial at 25 mg/kg, po bid via gavage administered for 5 consecutive days starting from day 5 post infection measured at day 40 post infection relative to control; format: functional
[8] = target: T2, Cytochrome P450 (family) (Homo sapiens, UniProt P04798+P05177+P05181+P08684+P10632+P10635+P11509+P11712+P13584+P20813+P20815+P20853+P24462+P24903+P33260+P33261+P51589+P78329+P98187+Q02928+Q08477+Q16678+Q16696+Q5TCH4+Q6VVX0+Q7Z449+Q8TAV3+Q96SQ9+Q9HB55); test: Drug metabolism in human liver microsome S9 fraction assessed as CYP450-mediated metabolism by measuring compound remaining at 5 uM pretreated with NADPH and measured after 60 mins by UPLC-MS/MS analysis; format: ADME, microsomes; settings: liver microsome S9 fraction, read-out: Stability
[9] = target: T2, Cytochrome P450 (family); test: Drug metabolism in human liver microsome S9 fraction assessed as CYP450-mediated metabolism by measuring compound remaining at 5 uM pretreated with NADPH and measured after 15 mins by UPLC-MS/MS analysis; format: ADME, microsomes; settings: liver microsome S9 fraction, read-out: Stability
[10] = test system: CYP450; test: Drug metabolism in dog liver microsome S9 fraction assessed as CYP450-mediated metabolism by measuring compound remaining at 5 uM pretreated with NADPH and measured after 60 mins by UPLC-MS/MS analysis; format: ADME, microsomes, Canis lupus familiaris; settings: liver microsome S9 fraction, read-out: Stability
[11] = test system: Trypanosoma cruzi; test: Antiparasitic activity against Trypanosoma cruzi Y strain bloodstream trypomastigotes infected in Swiss Webster mouse assessed as decrease in parasitemia at 25 mg/kg, po bid via gavage administered for 5 consecutive days measured at day 8 post infection by direct microscopic counting relative to control; format: functional; parameters: scale not given: the % may be the effect or the level left
[12] = test system: CYP450; test: Drug metabolism in rat liver microsome S9 fraction assessed as CYP450-mediated metabolism by measuring compound remaining at 5 uM pretreated with NADPH and measured after 60 mins by UPLC-MS/MS analysis; format: ADME, microsomes; settings: liver microsome S9 fraction, read-out: Stability
[13] = test system: UGT; test: Drug metabolism in mouse liver microsome S9 fraction assessed as UGT-mediated metabolism by measuring compound remaining at 5 uM pretreated with UDPGA and measured after 30 mins by UPLC-MS/MS analysis; format: ADME, microsomes; settings: liver microsome S9 fraction, read-out: Stability
[14] = target: T2, Cytochrome P450 (family); test: Drug metabolism in human liver microsome S9 fraction assessed as CYP450-mediated metabolism by measuring compound remaining at 5 uM pretreated with NADPH and measured after 30 mins by UPLC-MS/MS analysis; format: ADME, microsomes; settings: liver microsome S9 fraction, read-out: Stability
[15] = test system: Trypanosoma cruzi; test: as §1, with “mortality” for “mortality by measuring survivial”, “15 to day 22” for “40”, “infection” for “infection relative to control”; format: functional, organism-based
[16] = Toxicity in Swiss Webster mouse infected with Trypanosoma cruzi Y strain bloodstream trypomastigotes assessed as weight loss at 25 mg/kg, po bid via gavage administered for 5 consecutive days measured at day 40 post infection; format: organism-based; settings: in vivo
[17] = test system: CYP450; test: Drug metabolism in dog liver microsome S9 fraction assessed as CYP450-mediated metabolism by measuring compound remaining at 5 uM pretreated with NADPH and measured after 15 mins by UPLC-MS/MS analysis; format: ADME, microsomes, Canis lupus familiaris; settings: liver microsome S9 fraction, read-out: Stability
[18] = test system: UGT; test: Drug metabolism in rat liver microsome S9 fraction assessed as UGT-mediated metabolism by measuring compound remaining at 5 uM pretreated with UDPGA and measured after 30 mins by UPLC-MS/MS analysis; format: ADME, microsomes; settings: liver microsome S9 fraction, read-out: Stability
[19] = test system: CYP450; test: (§2) Drug metabolism in rat liver microsome S9 fraction assessed as CYP450-mediated metabolism by measuring compound remaining at 5 uM pretreated with NADPH and measured after 15 mins by UPLC-MS/MS analysis; format: ADME, microsomes; settings: liver microsome S9 fraction, read-out: Stability
[20] = test system: CYP450; test: Drug metabolism in mouse liver microsome S9 fraction assessed as CYP450-mediated metabolism by measuring compound remaining at 5 uM pretreated with NADPH and measured after 30 mins by UPLC-MS/MS analysis; format: ADME, microsomes; settings: liver microsome S9 fraction, read-out: Stability
[21] = test system: UGT; test: (§3) Drug metabolism in mouse liver microsome S9 fraction assessed as UGT-mediated metabolism by measuring compound remaining at 5 uM pretreated with UDPGA and measured after 15 mins by UPLC-MS/MS analysis; format: ADME, microsomes; settings: liver microsome S9 fraction, read-out: Stability
[22] = test system: UGT; test: Drug metabolism in dog liver microsome S9 fraction assessed as UGT-mediated metabolism by measuring compound remaining at 5 uM pretreated with UDPGA and measured after 30 mins by UPLC-MS/MS analysis; format: ADME, microsomes, Canis lupus familiaris; settings: liver microsome S9 fraction, read-out: Stability
[23] = test system: UGT; test: Drug metabolism in dog liver microsome S9 fraction assessed as UGT-mediated metabolism by measuring compound remaining at 5 uM pretreated with UDPGA and measured after 60 mins by UPLC-MS/MS analysis; format: ADME, microsomes, Canis lupus familiaris; settings: liver microsome S9 fraction, read-out: Stability
[24] = test system: CYP450; test: Drug metabolism in dog liver microsome S9 fraction assessed as CYP450-mediated metabolism by measuring compound remaining at 5 uM pretreated with NADPH and measured after 30 mins by UPLC-MS/MS analysis; format: ADME, microsomes, Canis lupus familiaris; settings: liver microsome S9 fraction, read-out: Stability
[25] = test system: UGT; test: Drug metabolism in dog liver microsome S9 fraction assessed as UGT-mediated metabolism by measuring compound remaining at 5 uM pretreated with UDPGA and measured after 15 mins by UPLC-MS/MS analysis; format: ADME, microsomes, Canis lupus familiaris; settings: liver microsome S9 fraction, read-out: Stability
[26] = test system: CYP450; test: Drug metabolism in mouse liver microsome S9 fraction assessed as CYP450-mediated metabolism by measuring compound remaining at 5 uM pretreated with NADPH and measured after 60 mins by UPLC-MS/MS analysis; format: ADME, microsomes; settings: liver microsome S9 fraction, read-out: Stability
[27] = Cytotoxicity against Swiss mouse embryonic cardiomyocytes assessed as reduction in cell viability after 24 hrs by prestoblue-staining based colorimetry; settings: Cardiac muscle cell
[28] = Cytotoxicity against human MRC5 SV2 cells assessed as reduction in cell viability after 3 days resazurin-based fluorimetric assay; settings: MRC-5 SV2, 72 h
[29] = test system: UGT; test: Drug metabolism in rat liver microsome S9 fraction assessed as UGT-mediated metabolism by measuring compound remaining at 5 uM pretreated with UDPGA and measured after 60 mins by UPLC-MS/MS analysis; format: ADME, microsomes; settings: liver microsome S9 fraction, read-out: Stability
[30] = Therapeutic index, ratio EC50 for human MRC5 SV2 cells to EC50 for Trypanosoma cruzi Tulahuen CL2 intracellular amastigotes; format: toxicity, cell-based; settings: read-out: Ratio EC50
[31] = test system: Trypanosoma cruzi; test: as §1, with “mortality” for “mortality by measuring survivial”, “15” for “40”, “infection” for “infection relative to control”; format: functional, organism-based
[32] = target: T1, UDP-glucuronosyltransferases (UGTs) (family); test: Drug metabolism in human liver microsome S9 fraction assessed as UGT-mediated metabolism by measuring compound remaining at 5 uM pretreated with UDPGA and measured after 60 mins by UPLC-MS/MS analysis; format: ADME, microsomes; settings: liver microsome S9 fraction, read-out: Stability
[33] = test system: Trypanosoma cruzi; test: Antiparasitic activity against Trypanosoma cruzi Tulahuen CL2 intracellular amastigotes expressing beta-galactosidase infected in human MRC5 SV2 cells after 7 days by chlorophenol red beta-D-galactopyranoside-based spectrophotometric analysis; format: functional, organism-based; settings: Tulahuen CL2, MRC-5 SV2, 168 h, read-out: EC50
[34] = test system: CYP450; test: Drug metabolism in mouse liver microsome S9 fraction assessed as CYP450-mediated metabolism by measuring compound remaining at 5 uM pretreated with NADPH and measured after 15 mins by UPLC-MS/MS analysis; format: ADME, microsomes; settings: liver microsome S9 fraction, read-out: Stability
[35] = target: T1, UDP-glucuronosyltransferases (UGTs) (family); test: Drug metabolism in human liver microsome S9 fraction assessed as UGT-mediated metabolism by measuring compound remaining at 5 uM pretreated with UDPGA and measured after 15 mins by UPLC-MS/MS analysis; format: ADME, microsomes; settings: liver microsome S9 fraction, read-out: Stability
[36] = test system: UGT; test: Drug metabolism in mouse liver microsome S9 fraction assessed as UGT-mediated metabolism by measuring compound remaining at 5 uM pretreated with UDPGA and measured after 60 mins by UPLC-MS/MS analysis; format: ADME, microsomes; settings: liver microsome S9 fraction, read-out: Stability
[37] = test system: Trypanosoma cruzi; test: Antiparasitic activity against Trypanosoma cruzi Y strain bloodstream trypomastigotes infected in Swiss Webster mouse at 25 mg/kg, po bid via gavage administered for 5 consecutive days starting from day 5 post infection followed by cyclophosphamide-induced immunosuppression on day 40 post infection for 4 consecutive days; format: functional, organism-based
[38] = as §2; format: ADME, microsomes; settings: microsomes, 0.25 h, 5 µM
[39] = as §3; format: ADME, microsomes; settings: microsomes, 0.25 h, 5 µM
[40] = Cytotoxicity against Swiss mouse embryonic cardiomyocytes assessed as reduction in cell contractibillity at 2 uM after 24 hrs by light microscopy; settings: cardiac muscle cell

Compound | remaining at 0.5 h, 5 µM [2] | EC50 [3] | remaining at 0.25 h, 5 µM [4] | remaining at 0.5 h, 5 µM [5] | EC50 [6] | Activity [7] | remaining at 1 h, 5 µM [8] | remaining at 0.25 h, 5 µM [9] | remaining at 1 h, 5 µM [10] | Activity [11] | remaining at 1 h, 5 µM [12] | remaining at 0.5 h, 5 µM [13] | remaining at 0.5 h, 5 µM [14] | Activity [16] | remaining at 0.25 h, 5 µM [17] | remaining at 0.5 h, 5 µM [18] | remaining at 0.5 h, 5 µM [20] | remaining at 0.5 h, 5 µM [22] | remaining at 1 h, 5 µM [23] | remaining at 0.5 h, 5 µM [24] | further results
CN(C)c1ncnc2c1ncn2[C@@H]1O[C@H](CO)[C@@H](N)[C@H]1O [PUROMYCIN AMINONUCLEOSIDE] | – | – | – | – | – | – | – | – | – | – | – | – | – | – | – | – | – | – | – | – | EC50 [1]: 1 µM
Nc1ncnc2c1c(-c1ccc(Cl)cc1)cn2[C@@H]1O[C@H](CO)C[C@H]1O | 106% | 0.029 µM | 101% | 101% | > 20 µM | 100% | 93% | 102% | 90% | 94.6% | 91% | 95% | 95% | Non-Toxic | 98% | 96% | 75% | 96% | 95% | 96% | Activity [15]: Active; remaining at 0.25 h, 5 µM [19]: 101%; remaining at 0.25 h, 5 µM [21]: 101%; remaining at 0.25 h, 5 µM [25]: 96%; remaining at 1 h, 5 µM [26]: 68%; EC50 [27]: 284 µM; EC50 [28]: 19.1 µM; remaining at 1 h, 5 µM [29]: 96%; selectivity ratio [30]: 410; Activity [31]: Active; remaining at 1 h, 5 µM [32]: 100%; EC50 [33]: 0.047 µM; remaining at 0.25 h, 5 µM [34]: 86%; remaining at 0.25 h, 5 µM [35]: 100%; remaining at 1 h, 5 µM [36]: 89%; Activity [37]: inactive
Nc1ncnc2c1c(-c1ccc(Cl)cc1)cn2[C@@H]1O[C@H](CO)[C@@H](O)[C@H]1O | 96% | 0.029 µM | 100% | 104% | > 20 µM | 100% | 86% | 113% | 98% | >99.8% | 106% | 110% | 93% | Non-Toxic | 93% | 93% | 95% | 70% | 55% | 96% | Stability [38]: 122%; Stability [39]: 124%; remaining at 0.25 h, 5 µM [25]: 84%; remaining at 1 h, 5 µM [26]: 102%; EC50 [27]: 274 µM; EC50 [28]: 27 µM; remaining at 1 h, 5 µM [29]: 93%; selectivity ratio [30]: 57; remaining at 1 h, 5 µM [32]: 91%; EC50 [33]: 0.47 µM; remaining at 0.25 h, 5 µM [34]: 110%; remaining at 0.25 h, 5 µM [35]: 99%; Activity [40]: Toxic; remaining at 1 h, 5 µM [36]: 106%; Activity [37]: inactive

Reference: ChEMBL document CHEMBL4382200, “Discovery of Novel 7-Aryl 7-Deazapurine 3'-Deoxy-ribofuranosyl Nucleosides with Potent Activity against Trypanosoma cruzi” (J Med Chem, 2018)
